Results on 36 compounds are retold here after patent US4613618A, “Method for treating disorders of lipid metabolism using benzene sulfonamides” (Choay S.A., priority 1981, dated 1986).

The experiment relates to hyperlipidemia caused by the administration of TRITON. Briefly: Triton test: lipid regulating activity in hyperlipidemia caused by TRITON W. R. Type of experiment: in vivo, WISTAR male rats. The note with it: Rattus norvegicus, po, 250 mg/kg orally, 6 hours and/or 24 hours. The protocol:
In a first series of experiments, products were tested on a hyperlipidemia caused by the administration of TRITON according to the following procedure.
The tests were carried out on groups of five WISTAR male rats whose weight varied from 150 to 175 g.
The tested products were administered, orally in the form of a 3% aqueous solution of tragacanth gum in the ratio of 1 ml per 100 g of body weight, in an amount corresponding to 250 mg/kg.
To carry out these tests, a hyperlipidemia was caused in the animals, by means of the product marketed by the ROHM and HAAS Company under the name TRITON W. R.
On this hyperlipidemia the effects obtained by the administration of the active substances according to the invention, are observed.
The tests were carried out as follows:
the rats were fasted for 18 hours, then the TRITON W. R. was administered intravenously in 10% aqueous solution in the proportion of 200 mg/kg;
simultaneously 250 mg/kg of the product under test was administered orally;
6 hours and/or 24 hours later, blood assays were carried out conventionally.
to the total cholesterol, […]

Setting [1] is: read-out: Total cholesterol, % of decrease with respect to Triton control.
Where [2] appears, read: read-out: Total lipids, % of decrease with respect to Triton control.
Setting [3] is: read-out: Triglycerides, % of decrease with respect to Triton control.

Structures are written as SMILES. Read-outs that look alike come from different tables or passages of the source.

Regarding `CCOC(=O)CCCCCNS(=O)(=O)c1ccc([N+](=O)[O-])cc1OC` [compound 608], the change in vivo at 250 mg/kg reads like this: under setting [1], -19%; under setting [2], -15%.
For `CCOC(=O)CCCCCCCNS(=O)(=O)c1cc(Cl)c(N)cc1OC` [compound 730], the change in vivo at 250 mg/kg under setting [3] was -10%.
With `COc1cc([N+](=O)[O-])ccc1S(=O)(=O)NCCCCCCCCCCC(=O)O` [compound 661], the change in vivo at 250 mg/kg by setting is: under setting [1], -37%; under setting [3], -86%.
As to `CCOC(=O)CCCCCNS(=O)(=O)c1cccc([N+](=O)[O-])c1` [compound 666], the change in vivo at 250 mg/kg under setting [2] is -20%.
Consider `Nc1cccc(S(=O)(=O)NCCCCCCCCCCC(=O)O)c1` [compound 695], for which the change in vivo at 250 mg/kg is, setting by setting: under setting [1], -24%; under setting [2], -20%; under setting [3], -27%.
For the compound `O=C(O)CCCCCNS(=O)(=O)c1ccc([N+](=O)[O-])cc1` [compound 562], under setting [2], the change in vivo at 250 mg/kg is -6%.
In the case of `O=C(O)CCCCCCCCCCNS(=O)(=O)c1ccc([N+](=O)[O-])cc1` [compound 564], the change in vivo at 250 mg/kg was -37% under setting [2] and -15% under setting [3].
On to `COc1cc([N+](=O)[O-])ccc1S(=O)(=O)NCCCCCC(=O)O` [compound 696, ε(4-nitro 2-methoxybenzenesulfonamido)caproic acid], for which the change in vivo at 250 mg/kg was -56% under setting [1], -46% under setting [2] and -59% under setting [3].
Taken in the same sequence, the figures for `COc1cc(N)ccc1S(=O)(=O)NCCCCCCCCCCC(=O)O` [compound 668] were -27%, -20% and -29%.
Regarding `CCOC(=O)CCCCCNS(=O)(=O)c1ccc(N)cc1` [compound 609], the change in vivo at 250 mg/kg under setting [1] is -40% and the change in vivo at 250 mg/kg under setting [3] was -2%.
In the case of `COc1cc(N)ccc1S(=O)(=O)NCCCCCC(=O)O` [compound 694, ε(4-amino 2-methoxybenzenesulfonamido)caproic acid], the change in vivo at 250 mg/kg by setting is: under setting [1], -32%; under setting [2], -31%; under setting [3], -65%.
Take `CCOC(=O)CCCCCNS(=O)(=O)c1ccc([N+](=O)[O-])cc1` [compound 563]: the change in vivo at 250 mg/kg reads like this: under setting [1], -8%; under setting [2], -27%.
Regarding `CCOC(=O)CCCCCCCCCCNS(=O)(=O)c1ccc([N+](=O)[O-])cc1` [compound 610], the change in vivo at 250 mg/kg under setting [1] was -20% and the change in vivo at 250 mg/kg under setting [2] was -2%.
Take `CCOC(=O)CCCNS(=O)(=O)c1cc(Cl)c(N)cc1OC` [compound 484]: the change in vivo at 250 mg/kg under setting [2] was -41%.
Take `COc1cc([N+](=O)[O-])c(Cl)cc1S(=O)(=O)NCCCCCCCC(=O)O` [compound 504]: under setting [1], the change in vivo at 250 mg/kg was -45%.
Turning to `CCOC(=O)CCCCCNS(=O)(=O)c1cc(Cl)c(N)cc1OC` [compound 469], the change in vivo at 250 mg/kg under setting [1] was -3%, the change in vivo at 250 mg/kg under setting [2] was -30% and the change in vivo at 250 mg/kg under setting [3] is -28%.
Take `O=C(O)CCCCCCCCCCNS(=O)(=O)c1cccs1` [compound 823]: the change in vivo at 250 mg/kg was -41% under setting [1] and -25% under setting [2].
Taken in the same sequence, the figures for `CCOC(=O)CCCCCCCNS(=O)(=O)c1cc(Cl)c([N+](=O)[O-])cc1OC` [compound 508] were -8% and -17%.
For `CCOC(=O)CCCCCCCCCCNS(=O)(=O)c1ccc(N)cc1` [compound 626], the change in vivo at 250 mg/kg under setting [1] was -18%.
On to `COc1cc([N+](=O)[O-])c(Cl)cc1S(=O)(=O)NCCCCCCCCCCC(=O)O` [compound 501], for which the change in vivo at 250 mg/kg by setting is: under setting [1], -24%; under setting [2], -17%; under setting [3], -18%.
As for `O=C(O)CCCCCNS(=O)(=O)c1cccs1` [compound 800], the change in vivo at 250 mg/kg by setting is: under setting [1], -13%; under setting [2], -33%; under setting [3], -5%.
The matching figures for `CCOC(=O)CCCCCNS(=O)(=O)c1cc(Cl)c([N+](=O)[O-])cc1OC` [compound 380, ethyl ester of (5-chloro 4-nitro 2-methoxy benzenesulfonamide)caproic acid]: -19%, -31% and -86%.
For `CCOC(=O)CCCCCCCCCCNS(=O)(=O)c1cccc(N)c1` [compound 683], the change in vivo at 250 mg/kg reads like this: under setting [2], -19%; under setting [3], -52%.
As to `CCOC(=O)CCCCCCCCCCNS(=O)(=O)c1ccc([N+](=O)[O-])cc1OC` [compound 611], the change in vivo at 250 mg/kg was -29% under setting [1] and -15% under setting [2].
With `Nc1cccc(S(=O)(=O)NCCCC(=O)O)c1` [compound 680], the change in vivo at 250 mg/kg was -46% under setting [2] and -16% under setting [3].
As to `CCOC(=O)CCCCCNS(=O)(=O)c1ccc(N)cc1OC` [compound 612], the change in vivo at 250 mg/kg by setting is: under setting [1], -1%; under setting [2], -48%; under setting [3], -13%.
As to `CCOC(=O)CCCCCCCCCCNS(=O)(=O)c1ccc(Cl)cc1` [compound 728], the change in vivo at 250 mg/kg under setting [2] is -32% and the change in vivo at 250 mg/kg under setting [3] is -53%.
For `CCOC(=O)CCCNS(=O)(=O)c1ccc(N)cc1` [compound 624], the change in vivo at 250 mg/kg under setting [1] was -18%.
On to `CCOC(=O)CCCNS(=O)(=O)c1cc(Cl)c([N+](=O)[O-])cc1OC` [compound 486], for which the change in vivo at 250 mg/kg runs as follows: under setting [2], -66%; under setting [3], -21%.
In the case of `Nc1ccc(S(=O)(=O)NCCCCCCCCCCC(=O)O)cc1` [compound 667], the change in vivo at 250 mg/kg under setting [1] was -7% and the change in vivo at 250 mg/kg under setting [2] was -45%.
As for `O=C(O)CCCCCCCCCCNS(=O)(=O)c1cccc([N+](=O)[O-])c1` [compound 697], the change in vivo at 250 mg/kg runs as follows: under setting [1], -46%; under setting [2], -35%; under setting [3], -50%.
For the compound `CCOC(=O)CCCNS(=O)(=O)c1ccc([N+](=O)[O-])cc1OC` [compound 625], under setting [3], the change in vivo at 250 mg/kg was -5%.
For `CCOC(=O)CCCNS(=O)(=O)c1ccc(N)cc1OC` [compound 656], the change in vivo at 250 mg/kg was -14% under setting [1], -3% under setting [2] and -29% under setting [3].
Take `CCOC(=O)CCCCCNS(=O)(=O)c1cccc(N)c1` [compound 682]: the change in vivo at 250 mg/kg by setting is: under setting [2], -22%; under setting [3], -34%.
With `COc1cc([N+](=O)[O-])ccc1S(=O)(=O)NCCCC(=O)O` [compound 660], the change in vivo at 250 mg/kg runs as follows: under setting [1], -42%; under setting [2], -36%; under setting [3], -90%.
For `CCOC(=O)CCCCCCCCCCNS(=O)(=O)c1cc(Cl)c(N)cc1OC` [compound 503], the change in vivo at 250 mg/kg under setting [2] was -26% and the change in vivo at 250 mg/kg under setting [3] is -18%.
